The subject of series [1] is Vero. The series can be described thus: Cytotoxicity against Chlorocebus aethiops (African green monkey) Vero cells infected with Toxoplasma gondii RH tachyzoites assessed as cell death and morphological alterations at 1 mM after 24 hr by microscopic analysis. Particulars: chlorocebus sabaeus, 1000 µM. Format: cell-based.
The test system of series [2] is Vero. The series can be described thus: Cytotoxicity against Chlorocebus aethiops (African green monkey) Vero cells infected with Toxoplasma gondii RH tachyzoites assessed as cell death and morphological alterations at 0.01 mM after 24 hr by microscopic analysis. Particulars: chlorocebus sabaeus, 10 µM. It is filed as cell-based.
The test system of series [3] is Vero. Description: Cytotoxicity against Chlorocebus aethiops (African green monkey) Vero cells infected with Toxoplasma gondii RH tachyzoites assessed as cell death and morphological alterations at 0.5 mM after 24 hr by microscopic analysis. Format: cell-based. The following applies: chlorocebus sabaeus, 500 µM.
Series [4] in a line: Cytotoxicity against Chlorocebus aethiops (African green monkey) Vero cells infected with Toxoplasma gondii RH tachyzoites assessed as cell death and morphological alterations after 24 hr by microscopic analysis. It is filed as cell-based. Particulars: chlorocebus sabaeus, read-out: LD50.
Series [5] concerns Toxoplasma gondii. Description: Antiparasitic activity against Toxoplasma gondii RH tachyzoites infected African green monkey Vero cells assessed as mortality treated 24 hr after parasite infection measured after 24 hr by Giemsa staining based microscopic analysis. It is filed as functional. Particulars: read-out: LD50 (the source's name).
Series [6] relates to Toxoplasma gondii. Description: Antiparasitic activity against Toxoplasma gondii RH tachyzoites infected African green monkey Vero cells assessed as reduction in number of infected Vero cells at 0.01 mM treated 24 hr after parasite infection measured after 24 hr by Giemsa staining based microscopic analysis. It is filed as functional.
The test system of series [7] is Toxoplasma gondii. The series can be described thus: Antiparasitic activity against Toxoplasma gondii RH tachyzoites infected African green monkey Vero cells assessed as reduction in number of intracellular parasites at 1 mM treated 24 hr after parasite infection measured after 24 hr by Giemsa staining based microscopic analysis. Format: functional, organism-based.

In series [8] the test system is Toxoplasma gondii. Description: Antiparasitic activity against Toxoplasma gondii RH tachyzoites infected African green monkey Vero cells assessed as reduction in number of intracellular parasites at 0.1 mM treated 24 hr after parasite infection measured after 24 hr by Giemsa staining based microscopic analysis. It is filed as functional, organism-based.
Series [9] relates to Toxoplasma gondii. Description: Antiparasitic activity against Toxoplasma gondii RH tachyzoites infected African green monkey Vero cells assessed as reduction in number of intracellular parasites at 0.01 mM treated 24 hr after parasite infection measured after 24 hr by Giemsa staining based microscopic analysis. It is filed as functional.

The source made the active and inactive calls. The calls are words filed in the database; no cut-off is given here. Where only a bound is given, the exact number is not on record here.

For the compound `COc1cc(O)cc(OC)c1/C=N/NC(=S)Nc1ccccc1`, the Activity is on record as 100% in the series with Vero [1], “Non-toxic” with Vero [2] and 50% in the series on Vero [3]. Besides, the CC50 at 24 h in series [4] turned out to be 700 µM. For the same compound, the LC50 with Toxoplasma gondii [5] was found to be 200 µM.
In general, inhibition refers to the share of the control response that was lost under treatment. `O=C(/N=C/c1ccc(O)c(O)c1O)NNc1ccccc1`: the inhibition at 10 µM with Toxoplasma gondii [6] is 50%. Besides, the Activity result in the series on Vero [1] was “Toxic”; in the series on Vero [2] it was “Non-toxic”; in the series on Vero [3], “Toxic”. Besides, in series [4], the CC50 at 24 h stood at 70 µM. Moreover, the LC50 in the series on Toxoplasma gondii [5] is 20 µM.
On to `O=C(/N=C/c1cc(O)c(O)cc1O)NNc1ccccc1`, for which the Activity entry in the series on Vero [1] is recorded as “Toxic”; with Vero [2], “Non-toxic”; in the series on Vero [3], “Toxic”. The CC50 at 24 h in [4] was found to be 400 µM. Moreover, in the series on Toxoplasma gondii [5], the LC50 came to 300 µM.
For `Nc1ccc(S(=O)(=O)Nc2ncccn2)cc1` [SULFADIAZINE], the CC50 at 24 h in [4] is over 10000 µM. Moreover, the LC50 in the series with Toxoplasma gondii [5] stood at 6000 µM.
For `COc1cc(O)cc(OC)c1/C=N/C(=O)NNc1ccccc1`, the inhibition result with Toxoplasma gondii [7] was “Active”. In the series on Vero [2], the Activity entry is listed as “Non-toxic”. Besides, the CC50 at 24 h in series [4] is over 1000 µM. Moreover, the LC50 with Toxoplasma gondii [5] was 600 µM.
On to `O=C(N/N=C/c1cc(O)c(O)cc1O)Nc1ccccc1`, for which the Activity entry in the series with Vero [1] is “Toxic”; in the series with Vero [2], “Non-toxic”; in the series with Vero [3], “Toxic”. In the series on Toxoplasma gondii [8], the inhibition entry was “Active”. The inhibition at 10 µM in the series on Toxoplasma gondii [9] stood at 82%. In addition, the CC50 at 24 h in series [4] was 300 µM. Further, the LC50 in the series with Toxoplasma gondii [5] turned out to be 6 µM.
In the case of `COc1cc(O)cc(OC)c1/C=N/NC(=O)Nc1ccccc1`, the Activity entry in the series on Vero [2] is “Non-toxic”. In series [4], the CC50 at 24 h is over 1000 µM. Further, the LC50 with Toxoplasma gondii [5] was determined as 500 µM.
Take `Oc1cc(O)c(/C=N/NC(=S)Nc2ccccc2)cc1O`: the figures for the Activity entry in the series with Vero [1], in the series on Vero [2] and with Vero [3] were “Toxic”, “Non-toxic” and “Toxic”, respectively. Also, the CC50 at 24 h in series [4] stood at 300 µM. For the same compound, the LC50 in the series with Toxoplasma gondii [5] amounted to 80 µM.
For the compound `O=C(N/N=C/c1ccc(O)c(O)c1O)Nc1ccccc1`, the values for the Activity entry in the series on Vero [1], with Vero [2] and with Vero [3] were “Toxic”, “Non-toxic” and “Toxic”, respectively. The CC50 at 24 h in series [4] is 300 µM. The LC50 in the series with Toxoplasma gondii [5] is 200 µM.
Take `Oc1ccc(/C=N/NC(=S)Nc2ccccc2)c(O)c1O`: the Activity result with Vero [1] is reported as “Toxic”; with Vero [2] it was “Non-toxic”; with Vero [3] it was “Toxic”. Also, the CC50 at 24 h in series [4] came to 400 µM. In addition, in the series with Toxoplasma gondii [5], the LC50 amounted to 30 µM.

These data come from ChEMBL document CHEMBL3046478, “Evaluating anti-Toxoplasma gondii activity of new serie of phenylsemicarbazone and phenylthiosemicarbazones in vitro” (Med Chem Res, 2013).
